Among the test systems are DU-145 prostate; HT29 colon; MALME-3M melanoma; MCF7 breast; MDA-MB-231 breast; OVCAR-5 ovarian; SF-295 CNS; SK-MEL-2 melanoma.
Holding throughout (assay): DTP human tumour cell line panel, 48 h

For orientation: TGI means the concentration at which net growth stops. A lower TGI goes with more potent growth arrest. What is called GI50 is the concentration at which growth is held to half of that of the control.

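The compound was tested at five concentrations on cells cultured in 96-well plates, with a 48-hour exposure period. GI50 is the concentration that inhibits growth by half. At the TGI there is no net growth.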

Regarding `O=C(O)c1ccc(S(=O)(=O)N=Nc2c(O)[nH]c3ccccc23)cc1`, the total growth inhibition concentration (TGI) in the assay with DU-145 prostate, in the assay on HT29 colon, with MALME-3M melanoma, with MCF7 breast, with MDA-MB-231 breast and with OVCAR-5 ovarian was more than 100 µM in each case. Moreover, the TGI in the assay on SF-295 CNS and with SK-MEL-2 melanoma was more than 100 µM throughout.
`COc1cc(/C=C2\CC3C4CC=C5C[C@@H](N6CCCC6)CC[C@]5(C)C4CC[C@]3(C)[C@H]2OC(C)=O)ccc1OCCN1CCCCC1` (some centres undefined): the GI50 in the assay with DU-145 prostate was 1.57 µM; in the assay on HT29 colon, 1550 nM; in the assay on MALME-3M melanoma, 164 nM; in the assay on MCF7 breast, 3.02 µM; with MDA-MB-231 breast, 2.27 µM; in the assay with OVCAR-5 ovarian, 1.46 µM. Also, the GI50 in the assay with SF-295 CNS is 1.85 µM; in the assay on SK-MEL-2 melanoma it was 1.87 µM. For the same molecule, the TGI was 3.67 µM in the assay with DU-145 prostate; more than 100 µM in the assay with HT29 colon; 0.529 µM in the assay with MALME-3M melanoma; more than 100 µM in the assay on MCF7 breast; 4.1 µM in the assay on MDA-MB-231 breast; 2.85 µM in the assay on OVCAR-5 ovarian. In addition, the results for the TGI in the assay on SF-295 CNS and in the assay on SK-MEL-2 melanoma were 3.44 µM and 3.36 µM, respectively.
Take `COc1cc(-c2nn(C(=O)NS(=O)(=O)c3ccc(C)cc3)cc2-c2ccncc2)ccc1Cl`: the GI50 in the assay on DU-145 prostate is 6.88 µM; with HT29 colon, 2890 nM; in the assay with MALME-3M melanoma it was 4140 nM; with MCF7 breast, 5.76 µM; with MDA-MB-231 breast it was 3.19 µM; in the assay with OVCAR-5 ovarian it was 5.53 µM. Moreover, the GI50 in the assay on SK-MEL-2 melanoma is 4.65 µM. Further, the TGI was 75.7 µM with DU-145 prostate; 17.6 µM in the assay with HT29 colon; 15.6 µM with MALME-3M melanoma; 26.2 µM with MCF7 breast; 28.2 µM in the assay on MDA-MB-231 breast; 39.4 µM with OVCAR-5 ovarian. Further, the TGI in the assay on SK-MEL-2 melanoma was found to be 15.4 µM.
In the case of `COC(=O)c1c2c(c(C)[n+]([O-])c1C)C(=O)C(NCc1cccc(OC)c1)=CC2=O`, the GI50 in the assay on DU-145 prostate was 3.43 µM; in the assay on HT29 colon it was 2510 nM; in the assay on MALME-3M melanoma, 318 nM; in the assay on MCF7 breast, 1.65 µM; with MDA-MB-231 breast it was 2.21 µM; in the assay with OVCAR-5 ovarian, 2.05 µM. The GI50 with SF-295 CNS is 2.05 µM; with SK-MEL-2 melanoma, 2.55 µM. Further, the TGI was 12 µM with DU-145 prostate; more than 100 µM with HT29 colon; 1.3 µM in the assay on MALME-3M melanoma; 3.63 µM in the assay with MCF7 breast; 6.24 µM in the assay with MDA-MB-231 breast; 4.76 µM in the assay with OVCAR-5 ovarian. The TGI was found to be 6.13 µM in the assay on SF-295 CNS and 7.49 µM in the assay with SK-MEL-2 melanoma.
With `O=C1NC(=O)C2(CCC(O)C2)c2cc[n+]([O-])cc21` (centres undefined), the concentration for total growth inhibition (TGI) in the assay with DU-145 prostate, with HT29 colon, in the assay with MALME-3M melanoma, with MCF7 breast, in the assay on MDA-MB-231 breast and in the assay on OVCAR-5 ovarian was more than 100 µM in each case. Besides, the TGI in the assay with SF-295 CNS and in the assay with SK-MEL-2 melanoma was more than 100 µM in each case.
Consider `COC(=O)[C@@H](Cc1c[nH]c2ccccc12)NC(=O)/C=C/c1ccccc1`, for which the GI50 was 4.58 µM in the assay with DU-145 prostate; 3900 nM with HT29 colon; more than 100000 nM with MALME-3M melanoma; 3.2 µM with MCF7 breast; 2.93 µM in the assay on MDA-MB-231 breast; 5.43 µM with OVCAR-5 ovarian. In addition, in the assay with SK-MEL-2 melanoma, the GI50 was 6.63 µM. Besides, the TGI in the assay with DU-145 prostate was more than 100 µM; in the assay on HT29 colon, 14.1 µM; in the assay on MALME-3M melanoma it was more than 100 µM; in the assay with MCF7 breast it was more than 100 µM; with MDA-MB-231 breast it was 8.63 µM; in the assay on OVCAR-5 ovarian, more than 100 µM. In the assay with SK-MEL-2 melanoma, this molecule registered a TGI of more than 100 µM.
`COc1ccccc1CNC(=O)C1c2ccccc2C(=O)N(CC(C)C)C1c1cccs1` (centres undefined): the GI50 is 38.4 µM in the assay with DU-145 prostate; 17000 nM in the assay with HT29 colon; 20700 nM with MALME-3M melanoma; 27.2 µM in the assay on MCF7 breast; 26.8 µM with MDA-MB-231 breast; 34.6 µM in the assay on OVCAR-5 ovarian. The GI50 with SF-295 CNS was 15.6 µM; in the assay on SK-MEL-2 melanoma, 16.6 µM. Also, the TGI in the assay with DU-145 prostate is more than 100 µM; in the assay with HT29 colon, 90.5 µM; in the assay with MALME-3M melanoma, 60.3 µM; with MCF7 breast, more than 100 µM; in the assay on MDA-MB-231 breast, more than 100 µM; in the assay with OVCAR-5 ovarian, more than 100 µM. Besides, the TGI in the assay with SF-295 CNS worked out at 67.8 µM; in the assay on SK-MEL-2 melanoma, 36.9 µM.
With `Cc1c2ncccc2nc2[nH]c3ccc(OCCN(C)C)cc3c12`, the GI50 with DU-145 prostate was 1.9 µM; in the assay on HT29 colon, 961 nM; with MALME-3M melanoma it was 2420 nM; with MCF7 breast it was 0.305 µM; in the assay with MDA-MB-231 breast it was 2.5 µM; in the assay on OVCAR-5 ovarian it was 2.81 µM. The GI50 in the assay with SF-295 CNS is 1.59 µM; with SK-MEL-2 melanoma it was 3.03 µM. The TGI was found to be 11.6 µM in the assay on DU-145 prostate; 6.05 µM in the assay with HT29 colon; 13.5 µM in the assay on MALME-3M melanoma; 6.04 µM in the assay with MCF7 breast; 16 µM in the assay with MDA-MB-231 breast; 19.2 µM in the assay with OVCAR-5 ovarian. For the same molecule, the results for the TGI with SF-295 CNS and in the assay with SK-MEL-2 melanoma were 13 µM and 15.1 µM, respectively.
For `CCOC(=O)c1c(C)n(CC(C)C)c2c1cc1oc(=O)c(=O)n3cnc2c13`, the GI50 in the assay on DU-145 prostate is 16.3 µM; in the assay on HT29 colon, 17200 nM; in the assay on MCF7 breast, 12.5 µM; in the assay on MDA-MB-231 breast, 8.18 µM; with OVCAR-5 ovarian, 29.6 µM; in the assay on SF-295 CNS it was 12.8 µM. In addition, the GI50 in the assay with SK-MEL-2 melanoma is 38.7 µM. Further, the TGI in the assay on DU-145 prostate was more than 50 µM; in the assay on HT29 colon, more than 50 µM; in the assay with MCF7 breast it was 45.3 µM; in the assay on MDA-MB-231 breast it was 22.1 µM; in the assay with OVCAR-5 ovarian, more than 50 µM; in the assay on SF-295 CNS, 33 µM. The concentration for total growth inhibition (TGI) in the assay with SK-MEL-2 melanoma was more than 50 µM.
Regarding `COc1ccc(OC)c(-c2cc(-c3ccccc3)nn2-c2ccc(S(N)(=O)=O)cc2)c1`, the GI50 in the assay on DU-145 prostate is 15.6 µM; in the assay on MCF7 breast, 3.08 µM; in the assay with MDA-MB-231 breast, 11.1 µM; in the assay with OVCAR-5 ovarian, 15 µM; with SF-295 CNS it was 13.6 µM; in the assay on SK-MEL-2 melanoma, 27.5 µM. For the same molecule, the TGI was 29.5 µM in the assay with DU-145 prostate; 16 µM with MCF7 breast; 27 µM in the assay on MDA-MB-231 breast; 28.8 µM in the assay on OVCAR-5 ovarian; 29.2 µM in the assay with SF-295 CNS; more than 100 µM in the assay with SK-MEL-2 melanoma.

Values taken from PubChem BioAssay (NCI).
